Assay [1] relates to OVA-challenged BALB/c mice. The assay is described as follows: Mouse model of allergic asthma (OVA), bronchoalveolar lavage eosinophils. In kind it is in vivo. The following applies: 5 mg/kg orally twice daily, 24 hr after second challenge, allergen/vehicle 1.0 ± 0.2 %. An excerpt: Female BALB/c mice about 6 weeks of age (MoB A/S; Ry, Denmark) were kept in well-controlled animal housing facilities and fed ad libitum. The study was approved by the Regional Ethics Committee in Malmoe-Lund, Sweden. […] Sigma) at day 0 as described previously. […] Control animals received saline challenge. Animals were sacrificed 24 hr after the last allergen challenge by pentobarbital i.p followed by bronchoalveolar lavage (BAL) and lung tissue sampling. In preliminary studies it was ascertained that daily allergen challenges for only a few days sufficed to produce a significant airway tissue eosinophilia as well as goblet cell hyperplasia. On days 14 and 15 mice were treated twice daily with TM30089 and ramatroban (BAY3405), 5 mg/kg orally. […] Drugs were administered 30 minutes before and 4 hr after each challenge. The dose of ramatroban was selected in accord with previous reports. […] The total number of cells was quantified using a […] (NucleoCounter®, Chemometec A/S, Allerod, Denmark) and 5 × 10^5 cells cytocentrifuged to microscope slides. Differential cell counts were performed on May-Grünwald Giemsa stained slides and percentage of eosinophils, lymphocytes, neutrophils, and macrophages determined by counting 200–300 cells in a blinded manner. […]

Another assay deals with T1, mCRTH2 (Mus musculus, UniProt Q9Z2J6).
T1 construct: expressed in transfected cells
T1 sequence (Q9Z2J6 1-382): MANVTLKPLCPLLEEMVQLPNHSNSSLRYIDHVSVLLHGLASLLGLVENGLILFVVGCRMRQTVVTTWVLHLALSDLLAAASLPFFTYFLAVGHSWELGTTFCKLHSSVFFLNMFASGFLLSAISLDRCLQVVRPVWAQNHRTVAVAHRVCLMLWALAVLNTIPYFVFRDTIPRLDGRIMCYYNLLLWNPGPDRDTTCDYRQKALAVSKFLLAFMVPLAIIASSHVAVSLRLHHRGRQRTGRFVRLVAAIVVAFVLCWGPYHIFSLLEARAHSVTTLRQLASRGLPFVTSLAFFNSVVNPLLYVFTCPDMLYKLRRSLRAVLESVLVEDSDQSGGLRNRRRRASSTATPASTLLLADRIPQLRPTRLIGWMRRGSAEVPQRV
Kind of assay: mCRTH2 whole cell competition binding ([3H]PGD2). The conditions noted are these: displacement of [3H]PGD2, mCRTH2-HEK cells. From the text:
(§1) The coding sequence of mCRTH2 (genbank accession no. AF054507) was amplified by PCR from mouse hippocampus cDNA and inserted into the pcDNA3.1(+) expression vector (invitrogen). A HEK293 cell line, stably expressing mCRTH2 (hereafter referred to as mCRTH2-HEK cells) was generated under G418 (Gibco #11811) selection and used as described below in whole cell binding and functional inositol phosphate accumulation assays. The coding sequence of mTP (genbank accession no. D10849) was amplified by PCR from mouse spleen cDNA and inserted into pcDNA3.1(+). HEK293 cells were transiently transfected with mTP as described and assayed after 48 hr as outlined below.
Binding assays were performed essentially as described previously. In brief, mCRTH2-HEK cells or HEK cells transiently transfected with mTP were seeded into white 96 well plates (Costar #3917) at a density of 30.000 cells/well. About 18–24 hr later, whole cell competition binding experiments were performed using 0.8 nM [^3H]PGD2 (Amersham #TRK734, 166 Ci/mmol) or 0.7 nM [^3H]SQ29548 (PerkinElmer #NET-936, 48.2 Ci/mmol), for mCRTH2 and mTP respectively. Total and nonspecific binding were determined in the absence and presence of 10 μM PGD2 for mCRTH2 and 10 μM U46619 for mTXA2 receptors.
was performed using the Prism 3.0 software (GraphPad Software, San Diego) as described previously with the following exceptions: Binding data from competition binding assays were normalized to percent of specific binding of [^3H]PGD2 or [^3H]SQ29548 and the Ki was then determined using the Cheng-Prusoff equation Ki = IC50/(1+L/Kd), where L is the concentration of radioactive ligand and Kd is its dissociation constant. For Schild analysis, global fitting using the Gaddum/Schild competitive interaction model was applied after the functional concentration-response curves for the agonists PGD2 or U46619 in the absence or presence of various antagonist concentrations were normalized to percent of the maximal response obtained by agonist alone.
(In a radioligand displacement assay an active substance lowers the binding of a labelled ligand.)

The next assay addresses T2, mTP (Mus musculus, UniProt P30987).
T2 construct: expressed in transfected cells; host or cells: HEK293 (transient, pcDNA3.1(+))
T2 sequence (P30987 1-341): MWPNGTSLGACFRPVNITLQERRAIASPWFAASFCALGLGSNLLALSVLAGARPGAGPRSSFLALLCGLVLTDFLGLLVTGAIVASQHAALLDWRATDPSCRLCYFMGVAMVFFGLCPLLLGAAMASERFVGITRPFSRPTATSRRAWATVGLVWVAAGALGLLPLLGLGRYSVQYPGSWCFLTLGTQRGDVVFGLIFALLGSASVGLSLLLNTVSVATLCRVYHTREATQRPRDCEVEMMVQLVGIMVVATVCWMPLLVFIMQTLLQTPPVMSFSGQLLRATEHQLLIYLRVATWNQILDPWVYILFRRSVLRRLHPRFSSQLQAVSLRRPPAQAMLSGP
Kind of assay: mTP whole cell competition binding ([3H]SQ29548). The following applies: displacement of [3H]SQ29548, HEK cells transfected with mTP.
Text: as §1
Binding assays were performed essentially as described previously. […] Total and nonspecific binding were determined in the absence and presence of 10 μM PGD2 for mCRTH2 and 10 μM U46619 for mTXA2 receptors.
was performed using the Prism 3.0 software (GraphPad Software, San Diego) as described previously with the following exceptions: Binding data from competition binding assays were normalized to percent of specific binding of [^3H]PGD2 or [^3H]SQ29548 and the Ki was then determined using the Cheng-Prusoff equation Ki = IC50/(1+L/Kd), where L is the concentration of radioactive ligand and Kd is its dissociation constant. […]

Structures are written as SMILES. Like-named read-outs stand apart in the source and are kept apart here.

In assay [1], `CN(C1CCc2c(c3ccccc3n2CC(=O)O)C1)S(=O)(=O)c1ccc(F)cc1` (stereo not shown) [TM30089] displayed a BALF eosinophils of 0.5 ± 0.01%. Also, on mCRTH2, the “pKi mCRTH2” value is reported as 8.96 ± 0.05. The Ki at mCRTH2 (printed in brackets after pKi, read-out: Ki mCRTH2) turned out to be 1.1 nM. Further, the “pKi mTP” value on mTP was determined as 5.30 ± 0.03.
Turning to `O=C(O)CCn1c2c(c3ccccc31)C[C@H](NS(=O)(=O)c1ccc(F)cc1)CC2` [ramatroban, reference compound], in assay [1], the BALF eosinophils was 0.4 ± 0.01%. Moreover, the Ki is 4.17 nM on mCRTH2 (read-out: pKi mCRTH2 (converted)) and 1.2 nM at mTP (read-out: pKi mTP (converted)).

Source of the values: PMC1810525, “Antagonism of the prostaglandin D2 receptor CRTH2 attenuates asthma pathology in mouse eosinophilic airway inflammation” (Respiratory Research, 2007).
